Laboratory results taken from patent US8044089B2, “3-3-di-substituted-oxindoles as inhibitors of translation initiation” (President and Fellows of Harvard College, priority 2004, dated 2011).

Assays:
eIF2α = eIF2α phosphorylation measured by Western blot; format: cell-based; conditions: for eIF2α-P (phosphorylation of eIF2α measured by Western blot): unit or reference not given
Description: As a non-limiting example, compounds 1272 and 1273 (set forth in Table 1) were synthesized starting from 3-bromoaniline, which upon condensation with hydroxylamine and chloral hydrate followed by concentrated sulfuric acid yielded an inseparable regioisomeric mixture of 4- and 6-bromo isatins. The addition of the two phenyl groups to the three position of the oxindole allowed easy chromatographic separation of the 4- and 6-bromo-3,3-diphenyloxindoles 1272 and 1273. Table 1 sets forth biological data for diaryloxindole compounds including, but not limited to 1272 and 1273. For Tables 1-14, Ca^2+ refers to Ca^2+ release from intracellular stores where a “+” denotes release and a “+/−” denotes inconclusive; eIF2α-P refers to phosphorylation of eIF2α measured by Western blot; SRB refers to the inhibitory concentration to reduce cell growth by 50% (IC50) for growth inhibition of A549 lung cancer cells; and n.d. is not determined.
Without intending to be bound by theory, the mechanism of action of translation initiation inhibitors is set forth in FIG. 1, and includes the depletion (complete or partial depletion) of intracellular calcium (Ca^2+) stores and phosphorylation of eIF2α. Compounds synthesized using the approaches described herein were screened for their ability to partially deplete intracellular Ca^2+ stores using FURA-2AM loaded cells (Benzaquen et al. (1995) Nature Medicine, 1:534, incorporated herein by reference in its entirety for all purposes). A limited subset of compounds were further screened for their ability to deplete endoplasmic reticulum (ER) Ca^2+. The Ca^2+ content of the ER was monitored using ER-targeted, Ca^2+ sensitive, recombinant proteins. These recombinant proteins emitted light by fluorescent resonance energy transfer (FRET) as a function of the Ca^2+ content of the medium. Such assays are previously described (Miyawaki, A.; Mizuno, H.; Llopis, J.; Tsien, R. Y.; Jalink, K. Cameleons as cytosolic and intra-organellar calcium probes, Oxford University Press: Oxford, London, 2001; pp 3-16, incorporated herein by reference in its entirety for all purposes). Compounds that depleted Ca^2+ were further evaluated for their ability to phosphorylate eIF2α. eIF2α phosphorylation was measured by Western blot analysis using the phospho-specific anti-eIF2α antibody, as previously described (Aktas et al. (1998) Proc. Natl. Acad. Sci. USA, 95:8280, incorporated herein by reference in its entirety for all purposes).

A549 lung cancer cells = experiment: SRB growth inhibition of A549 lung cancer cells; format: cell-based, human; conditions: A549 lung cancer cells; unit inferred; read-out: SRB (IC50 for growth inhibition of A549 lung cancer cells)
[1] = test system: intracellular Ca^2+ stores; experiment: Ca2+ release from intracellular stores (FURA-2AM loaded cells); format: cell-based; design: key to Ca^2+ (Ca^2+ release from intracellular stores): a “+” denotes release; a “+/−” denotes inconclusive
Method in brief: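 Ca2+ release scored in FURA-2AM loaded cells as "+" (release) or "+/−" (inconclusive); some compounds also tested with ER-targeted FRET Ca2+ sensors. Ca2+-depleting compounds were then tested for eIF2α phosphorylation by Western blot with phospho-specific anti-eIF2α antibody.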

Row | SMILES | eIF2α-P (phosphorylation of eIF2α measured by Western blot) (eIF2α) | IC50 (A549 lung cancer cells) | Ca^2+ (Ca^2+ release from intracellular stores) [1] | eIF2α phosphorylation (in words) (eIF2α) | Ca^2+ release / depletion of intracellular Ca^2+ (in words) [1]
1 | COC(=O)c1cccc2c1NC(=O)C2(c1ccccc1)c1ccccc1 [Compound 1354] | 1.74 | > 20 µM | + |  | 
2 | COc1ccccc1C1(c2ccc(C(C)(C)C)cc2)C(=O)Nc2ccccc21 (stereo not shown) [Compound 1237] | 1.3 | 17 µM | + |  | 
3 | COc1ccc(S(=O)(=O)Nc2cc(O)c(C)cc2C2(c3ccccc3)C(=O)Nc3ccccc32)cc1 (stereo not shown) [Compound 1590] | 1.12 | 5 µM | + |  | 
4 | O=C1Nc2ccccc2C1(c1ccccc1)c1ccc(O)cc1 (stereo not shown) [Compound 1295] | 1.66 | 16 µM | + |  | 
5 | CCc1ccc2c(c1)C(c1ccccc1)(c1ccccc1)C(=O)N2 [Compound 1269] | 1.64 | > 20 µM | + |  | 
6 | CC(C)(C)c1ccc(C2(c3ccccc3O)C(=O)Nc3ccccc32)cc1 (stereo not shown) [Compound 1239] | 1.88 | 8 µM | + |  | 
7 | CC(C)(C)c1ccc(O)c(C2(c3ccccc3)C(=O)Nc3cccc(Cl)c32)c1 (stereo not shown) [Compound 1209] | 2.08 | 8 µM | + |  | 
8 | O=C1Nc2ccccc2C1(c1ccccc1)c1ccc(O)c(F)c1 (stereo not shown) [Compound 1244] | 1.38 | 12 µM | + |  | 
9 | Cc1cc(C2(c3ccccc3)C(=O)Nc3ccccc32)c(NS(=O)(=O)c2ccc(I)cc2)cc1O (stereo not shown) [Compound 1592] | 5.19 | 3 µM | + |  | 
10 | CC(C)(C)c1ccc(O)c(C2(c3ccc(F)cc3)C(=O)Nc3ccccc32)c1 (stereo not shown) [Compound 1210] | 1.86 | 4 µM | + |  | 
11 | CC(C)(C)c1ccc(O)c(C2(Cc3ccccc3)C(=O)Nc3ccccc32)c1 (stereo not shown) [Compound 1275] | 1.01 | 13 µM | +/− |  | 
12 | CCCCc1ccc(C2(c3ccccc3)C(=O)Nc3ccccc32)cc1 (stereo not shown) [Compound 1298] | 0.45 | 8 µM | +/− |  | 
13 | Cc1ccccc1C1(c2cc(C(C)(C)C)ccc2O)C(=O)Nc2ccccc21 (stereo not shown) [Compound 1225] | 1.69 | 4 µM | + |  | 
14 | Cc1cc(C2(c3ccccc3)C(=O)Nc3ccccc32)c(NS(=O)(=O)c2cccc(C(F)(F)F)c2)cc1O (stereo not shown) [Compound 1514] | 1.65 | 3 µM | + |  | 
15 | CC(C)(C)c1ccc(O)c(C2(c3ccccc3)C(=O)Nc3cccc(Br)c32)c1 (stereo not shown) [Compound 1234] | 2.57 | 6 µM | + |  | 
16 | COC(=O)COc1ccc(C(C)(C)C)cc1C1(c2ccccc2)C(=O)Nc2ccccc21 (stereo not shown) [Compound 1402] | 3.94 | 9 µM | + |  | 

Row | SMILES | eIF2α-P (phosphorylation of eIF2α measured by Western blot) (eIF2α) | IC50 (A549 lung cancer cells) | Ca^2+ (Ca^2+ release from intracellular stores) [1] | eIF2α phosphorylation (in words) (eIF2α) | Ca^2+ release / depletion of intracellular Ca^2+ (in words) [1]
17 | CCCCCCc1ccc(O)c(C2(c3ccccc3)C(=O)Nc3ccccc32)c1 (stereo not shown) [Compound 1288] | 6.28 | 3 µM | + |  | 
18 | O=C1Nc2ccccc2C1(c1ccccc1)c1cc(C2CCCC2)ccc1O (stereo not shown) [Compound 1289] | 6.49 | 3 µM | + |  | 
19 | CCCCc1ccc(O)c(C2(c3ccccc3)C(=O)Nc3ccccc32)c1 (stereo not shown) [Compound 1287] | 10.08 | 3 µM | + |  | 
20 | CC(C)(C)c1ccc(O)c(C2(c3ccccc3)C(=O)Nc3c(C(=O)O)ccc(Cl)c32)c1 (stereo not shown) [Compound 1418] | 7.47 | 16 µM | + |  | 
21 | CCc1ccc(O)c(C2(c3ccccc3)C(=O)Nc3ccccc32)c1 (stereo not shown) [Compound 1285] | 2.96 | 8 µM | + |  | 
22 | CCCCCc1ccc(O)c(C2(c3ccccc3)C(=O)Nc3ccccc32)c1 (stereo not shown) [Compound 1286] | 8.60 | 3 µM | + |  | 
23 | O=C1Nc2cc(Br)ccc2C1(c1ccccc1)c1ccccc1 [Compound 1273] | 1.72 | 6 µM | + | none of the compounds exhibited an increase in eIF2α phosphorylation relative to compound 1392 | 
24 | O=C1Nc2cccc(Br)c2C1(c1ccccc1)c1ccccc1 [Compound 1272] | 1.63 | 8 µM | + | none of the compounds exhibited an increase in eIF2α phosphorylation relative to compound 1392 | 
25 | O=C1Nc2c(Br)cccc2C1(c1ccccc1)c1ccccc1 [Compound 1207] | 2.01 | 3 µM | +/− | none of the compounds exhibited an increase in eIF2α phosphorylation relative to compound 1392 | abrogated Ca^2+ depletion activity
26 | CC(C)(C)c1ccc(O)c(C2(c3ccccc3)C(=O)Nc3ccc(N)cc32)c1 (stereo not shown) [Compound 1231] | 1.46 | 14 µM | + |  | 
27 | CC(C)(C)c1ccc(O)c(C2(c3cccc(F)c3)C(=O)Nc3ccccc32)c1 (stereo not shown) [Compound 1223] | 4.41 | 7 µM | + |  | 
28 | CC(C)(C)c1ccc(O)c(C2(c3ccccc3)C(=O)Nc3ccc(I)cc32)c1 (stereo not shown) [Compound 1213] | 2 | 3 µM | +/− |  | 
29 | COc1ccccc1C1(c2cc(C(C)(C)C)ccc2O)C(=O)Nc2ccccc21 (stereo not shown) [Compound 1226] | 2.22 | 3 µM | + |  | 
30 | COc1ccc2c(c1)C(c1ccccc1)(c1cc(C(C)(C)C)ccc1O)C(=O)N2 (stereo not shown) [Compound 1214] | 1.62 | 6 µM | + |  | 
31 | CCCc1ccc(O)c(C2(c3ccccc3)C(=O)Nc3ccccc32)c1 (stereo not shown) [Compound 1283] | 7.67 | 3 µM | + |  | 
32 | Cc1cc(C2(c3ccccc3)C(=O)Nc3ccccc32)c(NS(=O)(=O)Cc2ccccc2)cc1O (stereo not shown) [Compound 1405] | 1.84 | 4 µM | + |  | 
